This assay concerns the target T1, human NOX4 (Homo sapiens, UniProt Q9NPH5).
T1 construct: expressed in transfected cells; membrane fraction used
T1 sequence (Q9NPH5 1-578): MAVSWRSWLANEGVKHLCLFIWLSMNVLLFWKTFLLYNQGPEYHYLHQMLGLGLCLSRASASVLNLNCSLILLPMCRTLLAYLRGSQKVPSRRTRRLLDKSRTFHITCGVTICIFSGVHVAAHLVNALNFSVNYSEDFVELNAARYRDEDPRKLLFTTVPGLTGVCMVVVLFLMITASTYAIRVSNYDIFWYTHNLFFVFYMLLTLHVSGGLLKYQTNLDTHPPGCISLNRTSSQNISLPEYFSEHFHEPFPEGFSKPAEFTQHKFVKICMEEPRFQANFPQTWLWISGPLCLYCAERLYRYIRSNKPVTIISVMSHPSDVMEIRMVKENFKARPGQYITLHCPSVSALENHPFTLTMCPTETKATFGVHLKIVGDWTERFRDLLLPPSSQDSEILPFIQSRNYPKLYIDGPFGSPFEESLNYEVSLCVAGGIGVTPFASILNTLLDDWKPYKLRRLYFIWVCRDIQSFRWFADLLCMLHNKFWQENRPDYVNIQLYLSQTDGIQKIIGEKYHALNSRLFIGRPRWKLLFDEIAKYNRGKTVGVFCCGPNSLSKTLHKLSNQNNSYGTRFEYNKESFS
T1 sequence (P13498 1-195 partner): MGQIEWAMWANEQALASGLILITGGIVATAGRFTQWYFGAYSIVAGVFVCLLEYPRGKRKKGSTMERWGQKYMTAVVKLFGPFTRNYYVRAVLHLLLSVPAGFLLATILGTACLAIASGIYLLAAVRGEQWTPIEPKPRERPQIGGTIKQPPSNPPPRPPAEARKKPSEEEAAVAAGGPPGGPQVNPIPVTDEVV
Nature of the assay: Cell free membrane based in vitro NOX4 assay: H2O2 production by membranes expressing human NOX4, measured with Amplex Red. It is filed as biochemical. The conditions noted are these: for inhibition at 1 µM / Percentage inhibition at 1.0 μM: 1.0 μM compound; for inhibition at 1 µM: read-out: Percentage inhibition at 1.0 μM; for inhibition at 10 µM / Percentage inhibition at 10.0 μM: 10.0 μM compound; for inhibition at 10 µM: read-out: Percentage inhibition at 10.0 μM; for IC50: class symbols. In outline:
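IC50 came from concentration-response curves fitted as % of the inhibitor-free maximum. H2O2 formation was monitored for 10 min via Amplex Red/HRP fluorescence (544/590 nm) after NADPH start. Membranes from a stable hNOX4/HEK line had 20 min exposure to inhibitor beforehand at pH 7.4.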

Where a name gives a salt, the structure may show the parent alone. Bounds are passed on as bounds.

Broadly, the inhibition is the percentage by which the read-out fell short of the control. Usually IC50 stands for the concentration that gives 50% inhibition. A low value points to higher potency.

For `CCc1nn(CCS(C)(=O)=O)c2[nH]c(-c3c(F)cccc3F)c(O)c(=O)c12` [Example 218, 6-(2,6-Difluorophenyl)-3-ethyl-5-hydroxy-1-(2-(methylsulfonyl)ethyl)-1H-pyrazolo[3,4-b]pyridin-4(7H)-one], the inhibition at 1 µM was determined as 85.5%, the inhibition at 10 µM amounted to 90.1% and the IC50 lay within 50 to 100 nM.
In the case of `Cn1nc(CN2CCN(C3COC3)CC2)c2c(=O)c(O)c(-c3c(F)cccc3F)[nH]c21` [Example 219, 6-(2,6-Difluorophenyl)-5-hydroxy-1-methyl-3-((4-(oxetan-3-yl)piperazin-1-yl)methyl)-1H-pyrazolo[3,4-b]pyridin-4(7H)-one], the inhibition at 1 µM came out at 81.7%, the inhibition at 10 µM stood at 89.2% and the IC50 is more than 150 nM.
For the molecule `Cn1nc(CN2CCN(CC(F)(F)F)CC2)c2c(=O)c(O)c(-c3c(F)cccc3F)[nH]c21` [Example 220, 6-(2,6-Difluorophenyl)-5-hydroxy-1-methyl-3-((4-(2,2,2-trifluoroethyl)piperazin-1-yl)methyl)-1H-pyrazolo[3,4-b]pyridin-4(7H)-one], the “Percentage inhibition at 1.0 μM” value turned out to be 87.57%, the “Percentage inhibition at 10.0 μM” value was found to be 100.00% and the IC50 was more than 150 nM.
Turning to `Cn1nc(CN2CCN(CCF)CC2)c2c(=O)c(O)c(-c3c(F)cccc3F)[nH]c21` [Example 221, 6-(2,6-Difluorophenyl)-3-((4-(2-fluoroethyl)piperazin-1-yl)methyl)-5-hydroxy-1-methyl-1H-pyrazolo[3,4-b]pyridin-4(7H)-one], the inhibition at 1 µM amounted to 84%, the inhibition at 10 µM amounted to 97.1% and the IC50 was more than 150 nM.
Taken in the same sequence, the figures for `CC(C)N1CCN(Cc2nn(C)c3[nH]c(-c4c(F)cccc4F)c(O)c(=O)c23)C[C@@H]1C` [Example 222, (S)-6-(2,6-Difluorophenyl)-5-hydroxy-3-((4-isopropyl-3-methylpiperazin-1-yl)methyl)-1-methyl-1H-pyrazolo[3,4-b]pyridin-4(7H)-one] were 86.2%, 92.7% and more than 150 nM.
The matching figures for `CC(C)N1CCN(Cc2nn(C)c3[nH]c(-c4c(F)cccc4F)c(O)c(=O)c23)C[C@H]1C` [Example 223, (R)-6-(2,6-Difluorophenyl)-5-hydroxy-3-((4-isopropyl-3-methylpiperazin-1-yl)methyl)-1-methyl-1H-pyrazolo[3,4-b]pyridin-4(7H)-one]: 89.7%, 96.6% and 100 to 150 nM.
Turning to `Cn1nc(C(F)(F)F)c2c(=O)c(O)c(-c3ccc(O)cc3)[nH]c21` [Example 225, 5-hydroxy-6-(4-hydroxyphenyl)-1-methyl-3-(trifluoromethyl)-1,7-dihydro-4H-pyrazolo[3,4-b]pyridin-4-one], the inhibition at 1 µM turned out to be 80.1%, the inhibition at 10 µM came to 90.7% and the half-maximal inhibitory concentration (IC50) is more than 150 nM.
Turning to `CC(=O)Oc1c(-c2c(F)cccc2F)[nH]c2c(c(C)nn2C)c1=O` [Example 226], the inhibition at 1 µM was determined as 22.9% and the inhibition at 10 µM was 66.9%.
As for `Cc1c2oc(-c3ccccc3Cl)c(O)c(=O)c2nn1C` [Example 227, 5-(2-chlorophenyl)-6-hydroxy-2,3-dimethylpyrano[3,2-c]pyrazol-7(2H)-one], the inhibition at 1 µM is 6.03% and the inhibition at 10 µM was 16%.
With `Cc1c2oc(-c3ccccc3Cl)c(O)c(=O)c2nn1C(C)C` [Example 228, 5-(2-Chlorophenyl)-6-hydroxy-3-methyl-2-(propan-2-yl)pyrano[3,2-c]pyrazol-7(2H)-one], the inhibition at 1 µM was found to be 8.66% and the inhibition at 10 µM was 11%.
`CCn1nc2c(=O)c(O)c(-c3ccccc3Cl)oc2c1C` [Example 229, 5-(2-Chlorophenyl)-2-ethyl-6-hydroxy-3-methylpyrano[3,2-c]pyrazol-7(2H)-one]: the inhibition at 1 µM turned out to be 4.45% and the inhibition at 10 µM was 5.81%.
Take `Cc1nn(C)c2oc(-c3ccccc3Cl)c(O)c(=O)c12` [Example 230, 6-(2-chlorophenyl)-5-hydroxy-1,3-dimethylpyrano[2,3-c]pyrazol-4(1H)-one]: the inhibition at 1 µM stood at 3.28% and the inhibition at 10 µM is 5.83%.
For `Cc1nn(-c2ccc(F)cc2)c2oc(-c3ccccc3Cl)c(O)c(=O)c12` [Example 231, 6-(2-Chlorophenyl)-1-(4-fluorophenyl)-5-hydroxy-3-methylpyrano[2,3-c]pyrazol-4(1H)-one], the inhibition at 1 µM amounted to 12.5% and the inhibition at 10 µM stood at 9.39%.
Consider `Cc1nn(CCCO)c2[nH]c(-c3c(F)cccc3F)c(O)c(=O)c12` [Example 232, 6-(2,6-Difluorophenyl)-5-hydroxy-1-(3-hydroxypropyl)-3-methyl-1H-pyrazolo[3,4-b]pyridin-4(7H)-one], for which the inhibition at 1 µM stood at 85.1%, the inhibition at 10 µM amounted to 84.8% and the IC50 was in the range of 50 to 100 nM.
`COc1c(-c2ccccc2Cl)[nH]c2c(c(C)nn2C)c1=O` [Example 233, 6-(2-chlorophenyl)-5-methoxy-1,3-dimethyl-1H-pyrazolo[3,4-b]pyridin-4(7H)-one]: the inhibition at 1 µM was 32.8% and the inhibition at 10 µM was determined as 69.7%.
Turning to `CCn1nc(C)c2c(=O)c(OC)c(-c3c(F)cccc3F)[nH]c21` [Example 234], the inhibition at 1 µM is 25.8% and the inhibition at 10 µM was determined as 70.2%.
As to `CCn1nc(C)c2c(=O)c(O)c(-c3ccc(NS(C)(=O)=O)cc3F)[nH]c21` [Example 235, N-[4-(1-ethyl-5-hydroxy-3-methyl-4-oxo-4,7-dihydro-1H-pyrazolo[3,4-b]pyridin-6-yl)-3-fluorophenyl]methanesulfonamide], the inhibition at 1 µM was determined as 72.9% and the IC50 is more than 150 nM.
In the case of `CCn1nc(C)c2c(=O)c(O)c(-c3c(F)cc(NS(C)(=O)=O)cc3F)[nH]c21` [Example 236, N-[4-(1-Ethyl-5-hydroxy-3-methyl-4-oxo-4,7-dihydro-1H-pyrazolo[3,4-b]pyridin-6-yl)-3,5-difluorophenyl]methanesulfonamide], the inhibition at 1 µM was 84.8%, the inhibition at 10 µM is 87.7% and the IC50 is 50 to 100 nM.
In the case of `Cn1nc(C(F)(F)F)c2c(=O)c(O)c(-c3ccc(NS(C)(=O)=O)cc3F)[nH]c21` [Example 237, N-{3-Fluoro-4-[5-hydroxy-1-methyl-4-oxo-3-(trifluoromethyl)-4,7-dihydro-1H-pyrazolo[3,4-b]pyridin-6-yl]phenyl}methanesulfonamide], the inhibition at 1 µM turned out to be 60.9%, the inhibition at 10 µM stood at 74.3% and the IC50 is more than 150 nM.
Take `CCc1nn(CCN2CCOCC2)c2[nH]c(-c3ccccc3Cl)c(O)c(=O)c12` [Example 238, 6-(2-Chlorophenyl)-3-ethyl-5-hydroxy-1-(2-morpholinoethyl)-1H-pyrazolo[3,4-b]pyridin-4(7H)-one hydrochloride]: the IC50 is more than 150 nM. For the same molecule, where the note is “hydrochloride”, the “Percentage inhibition at 1.0 μM” value is on record as 80.17%. Besides, where the note is “hydrochloride, 10 µM”, the “Percentage inhibition at 10.0 μM” value stood at 71.20%.
In the case of `Cc1nn(CCN2CCOCC2)c2[nH]c(-c3cccc(C(F)(F)F)c3F)c(O)c(=O)c12` [Example 239, 6-(2-Fluoro-3-(trifluoromethyl)phenyl)-5-hydroxy-3-methyl-1-(2-morpholinoethyl)-1H-pyrazolo[3,4-b]pyridin-4(7H)-one dihydrochloride], the “Percentage inhibition at 1.0 μM” value (dihydrochloride) came out at 84.59%. Further, the “Percentage inhibition at 10.0 μM” value (dihydrochloride, 10 µM) is on record as 77.77%.
For `Cc1nn(CCN2CCN(C)CC2)c2[nH]c(-c3ccccc3Cl)c(O)c(=O)c12` [Example 243, 6-(2-Chlorophenyl)-5-hydroxy-3-methyl-1-(2-(4-methylpiperazin-1-yl)ethyl)-1H-pyrazolo[3,4-b]pyridin-4(7H)-one fumarate], the IC50 is more than 150 nM.

For the origin of these results see patent US20200247800A1, “SUBSTITUTED BICYCLIC HETEROCYCLIC COMPOUNDS AS NADPH OXIDASE INHIBITORS” (Glenmark Pharmaceuticals S.A., priority 2017, published 2020).
